Assay results reported in patent publication US6828458B2, “Topical antiandrogen for hair loss and other hyperandrogenic conditions” (Biophysica, Inc., priority 2000, dated 2004).
Like-named read-outs stand apart in the source and are kept apart here. Each block holds one compound with its values, some of them ahead of it.

Legend:
mice [1] = conditions: cited from earlier work
[2] = Cutaneous absorption in rabbits, serum analyzed by HPLC; format: in vivo, rabbit; conditions: BP-766 topical twice daily (0.6 mg/kg-day) for ten days, limit of detection approximately 10 ng/ml
Description: (§1) BP-766 was applied topically twice daily to simulate the intended human application (0.6 mg/kg-day), on the two 10 cm^2 separate areas of a closely shaved skin of four rabbits, for ten days. One ml blood samples were collected at 2, 5 and 21 hours after the first application, and once every other day thereafter. Serum was analyzed by HPLC. Using spiked and blank serum samples and a linearity determination, the limits of detection of BP-766 and/or BP-34 were established as approximately 10 ng/ml. […] The cutaneous absorption in rabbits is known to be about 5 to 6 times greater than in humans (Marzulic, F. N. and Maibach, H.: Dermatotoxicology, 5th Edition, Taylor & Frasier, Washington, D.C. 1966) so that even with the detection limits of this method, only trace amounts could ever be expected in humans.

mice [3] = test: Systemic toxicity by intraperitoneal injections in mice; format: in vivo, mouse
Description: (§2) The systemic toxicity of BP-766 was orientationally evaluated by multiple intraperitoneal (i.p.) injections in mice. […] […] The murine maximum tolerated dose (MTD) was approximately 300 mg/kg.

Androgen Receptor = target: T1, Androgen Receptor (Homo sapiens, UniProt P10275, T878A); test: Androgen receptor remaining in LNCaP cells after incubation, Western Blot of lysate; format: cell-based; conditions: for Percent Androgen Receptor Remaining in LNCaP Cells: 48 hrs. incubation
T1 construct: endogenous in cells; host or cells: LNCaP cells
T1 sequence (P10275 1-920 T878A): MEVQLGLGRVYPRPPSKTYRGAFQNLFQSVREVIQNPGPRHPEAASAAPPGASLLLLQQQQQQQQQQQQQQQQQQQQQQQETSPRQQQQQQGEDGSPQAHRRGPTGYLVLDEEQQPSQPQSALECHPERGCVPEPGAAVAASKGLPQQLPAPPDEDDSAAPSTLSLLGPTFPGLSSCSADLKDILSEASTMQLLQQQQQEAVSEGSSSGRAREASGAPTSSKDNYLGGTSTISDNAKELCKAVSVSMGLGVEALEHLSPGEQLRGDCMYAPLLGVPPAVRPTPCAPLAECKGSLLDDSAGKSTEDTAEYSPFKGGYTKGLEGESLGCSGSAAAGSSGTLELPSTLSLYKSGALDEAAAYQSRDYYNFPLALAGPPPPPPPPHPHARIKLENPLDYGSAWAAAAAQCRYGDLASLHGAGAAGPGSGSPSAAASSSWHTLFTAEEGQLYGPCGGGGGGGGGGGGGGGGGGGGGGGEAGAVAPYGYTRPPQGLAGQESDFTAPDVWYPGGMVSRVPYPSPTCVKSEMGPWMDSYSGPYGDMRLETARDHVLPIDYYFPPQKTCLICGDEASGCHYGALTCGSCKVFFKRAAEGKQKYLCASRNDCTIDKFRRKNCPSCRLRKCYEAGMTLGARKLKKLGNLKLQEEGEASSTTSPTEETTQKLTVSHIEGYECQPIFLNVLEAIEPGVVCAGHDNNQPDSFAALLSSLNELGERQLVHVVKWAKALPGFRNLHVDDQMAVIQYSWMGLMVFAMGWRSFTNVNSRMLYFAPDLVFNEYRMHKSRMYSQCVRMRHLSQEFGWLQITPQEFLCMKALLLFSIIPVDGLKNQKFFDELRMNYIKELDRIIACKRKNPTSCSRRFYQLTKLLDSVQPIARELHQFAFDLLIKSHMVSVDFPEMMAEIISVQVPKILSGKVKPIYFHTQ
Description: The interaction of BP-766 with androgenic receptors was studied by incubation with LNCaP cells, (known to contain human AR), subsequent cell lysis and the Western Blot assay to identify and quantify the androgenic receptors protein.

[4] = Accelerated shelf stability of formulated solutions, HPLC; format: physicochemical; conditions: for BP-766 remaining: anhydrous isopropanol
From the text: (Table 3). […] (Connors, Kenneth A; Amidon, Gordon L.; Stella, Valentino J. Chemical Stability of Pharmaceuticals—A Handbook for Pharmacists. Second Edition, 1986, John Wiley & Sons)

[5] = system: volunteers with incipient androgenic effluvium and/or alopecia; test: Topical treatment of volunteers with androgenic effluvium and/or alopecia; format: in vivo, human
[6] = Acute oral toxicity in NMRI mice; conditions: mouse, in vivo, probit analysis
Description: (§3) Acute oral toxicity of BP-766 was determined in NMRI mice and Wistar rats.

rabbits [7] = test: Cutaneous irritation observed daily in rabbits during ten-day topical application; format: in vivo, rabbit; conditions: topical twice daily for ten days
Description: as §1

[8] = Biodegradation in human serum, HPLC; format: in vitro ADME; conditions: 38° C., 0.5 mg/ml
Description: BP-766 was tested for degradation by incubation with human serum at 38° C., at a concentration of 0.5 mg/ml. It would be desirable for safety that should BP-766 for any unexpected reason be resorbed from the skin, it should decompose into rapidly excretable non-toxic components. The only products of biodegradation of BP-766 are the precursor BP-34, and trifluoroacetic acid, which both have good biological tolerance. […] (Permadi, H; Lundgren, B; Andersson K; Sundberg C; DePierre J W. Effects of perfluoro fatty acids on peroxisome proliferation and mitochondrialsize in mouse liver: dose and time factors and effect of chain length. Xenobiotica, (1993) Vol 23, No. 7, pp. 761-70). Orientational toxicity of BP-34 is described further below.

[9] = Systemic toxicity by intraperitoneal injections in mice; format: in vivo, mouse; conditions: mouse, in vivo, ip, i.p. injections, read-out: murine maximum tolerated dose (MTD)
Description: as §2

rabbits [10] = test: Skin irritation potential according to ISO 10 993-10; format: in vivo, rabbit
Description: BP-766 was also evaluated by an independent laboratory according to ISO 10 993-10, in rabbits. A single application of 0.5 ml as a 1% (m/v) solution in anhydrous isopropyl alcohol and/or the vehicle only was employed. The application site was covered in one group, and not covered in an other group, each consisting of six rabbits. […] Non-irritability was defined by an arbitrary index, ranging from 0 to 0.4.

Wistar rats = test: Acute oral toxicity in Wistar rats; format: in vivo, rat; conditions: male and female
Description: as §3

Compound: O=C(O)C(F)(F)F [trifluoroacetic acid]
toxicity when fed to mice (mice [1]): showed no toxicity

Compound: 4-nitro-3-trifluoromethyl-N-(2-hydroxy-2-methyl-3-amino [BP-34]
BP-766 and/or BP-34 found in serum [2]: No BP-766 or BP-34 was found in any of the samples
murine maximum tolerated dose (MTD) (mice [3]; i.p. injections): approximately 250 mg/kg
mortality (mice [3]; i.p. injections of 100-300 mg/kg): no mortalities
morbidity / mortality (mice [3]; i.p., 300 mg/kg): Morbidity, but not mortality, was observed
effect on the androgenic receptors (in words) (Androgen Receptor): had no effect on the androgenic receptors
Percent Androgen Receptor Remaining in LNCaP Cells (Androgen Receptor; 3 μ Molar conc.): 97%
Percent Androgen Receptor Remaining in LNCaP Cells (Androgen Receptor; 10 μ Molar conc.): 98%

Compound: CC(O)(CNC(=O)C(F)(F)F)C(=O)Nc1ccc([N+](=O)[O-])c(C(F)(F)F)c1 (centres unmarked) [BP-766, 2-hydroxy-2-methyl-N-(4-nitro-3-(trifluoromethyl)phenyl)-3-(2,2,2-trifluoroacetylamino)propanamide]
% BP-766 ([4]; 60/40 EtOH/H2O, 55° C., 0 hours): 100%
% BP-766 ([4]; 60/40 EtOH/H2O, 55° C., 24 hours): 99.1%
% BP-766 ([4]; 60/40 EtOH/H2O, 55° C., 48 hours): 98.2%
% BP-766 ([4]; 60/40 EtOH/H2O, RT, 0 hours): 100%
% BP-766 ([4]; 60/40 EtOH/H2O, RT, 24 hours): 99.9%
% BP-766 ([4]; 60/40 EtOH/H2O, RT, 48 hours): 99.69%
% BP-766 ([4]; Isopropanol (3-5% water), 55° C., 0 hours): 100%
% BP-766 ([4]; Isopropanol (3-5% water), 55° C., 6 hours): 99.6%
% BP-766 ([4]; Isopropanol (3-5% water), 55° C., 24 hours): 99.1%
% BP-766 ([4]; Isopropanol (3-5% water), 55° C., 144 hours): 98.7%
BP-766 remaining ([4]; 0 weeks): 100%
BP-766 remaining ([4]; 1 week): 99.6%
BP-766 remaining ([4]; 2 weeks): 99.4%
BP-766 remaining ([4]; 3 weeks): 99.3%
BP-766 remaining ([4]; 4 weeks): 99.2%
BP-766 remaining ([4]; 5 weeks): 98.9%
BP-766 remaining ([4]; 6 weeks): 98.8%
BP-766 remaining ([4]; 7 weeks): 98.3%
BP-766 remaining ([4]; 8 weeks): 98.4%
dermal irritation ([5]; six volunteers, 2% solution in anhydrous isopropanol, 1 ml twice daily on the scalp, 8 weeks): no dermal irritation
effluvium of the frontal hairline ([5]; six volunteers, 2% solution, 1 ml twice daily, after 2 weeks): arrested the effluvium of the frontal hairline in all six volunteers
hair regrowth ([5]; two volunteers, after 4 months use): an evident regrowth was observed
LD50 ([6]; female NMRI mice): 2230 mg/kg
LD50 ([6]; male NMRI mice): 2870 mg/kg
signs of cutaneous irritation (rabbits [7]): none was detected
% BP-766 remaining in human serum ([8]; 0 hours): 100%
% BP-766 remaining in human serum ([8]; 6 hours): 54.3%
% BP-766 remaining in human serum ([8]; 24 hours): 10.9%
% BP-766 remaining in human serum ([8]; 48 hours): Traces
MTD at 7 days [9]: ~300 mg/kg
LD50 (daily dose for seven days that resulted in 50% mortality) (mice [3]; i.p., daily for seven days): 450 mg/kg bw
skin irritation potential (rabbits [10]): no skin irritation potential was found
LD50 (Wistar rats): greater than 2500 mg/kg body weight

Percent Androgen Receptor Remaining in LNCaP Cells (Androgen Receptor; 3 μ Molar conc.): 98%
Percent Androgen Receptor Remaining in LNCaP Cells (Androgen Receptor; 10 μ Molar conc.): 94%
Compound: CC(C)(O)C(=O)Nc1ccc([N+](=O)[O-])c(C(F)(F)F)c1 [Hydroxyflutamide, reference compound]
effect on the androgenic receptors (in words) (Androgen Receptor; any concentration, after 48 hrs.): did not a affect the androgenic receptors significantly
